Test results published in BigSolDB 2.1.

Which results are given for `Nc1ccccc1N`?
solubility (mole fraction) (in acetonitrile, 283.15 K): 0.0558; solubility (mole fraction) (in acetonitrile, 285.65 K): 0.0595; solubility (mole fraction) (in acetonitrile, 288.15 K): 0.0643; solubility (mole fraction) (in acetonitrile, 290.65 K): 0.0685; solubility (mole fraction) (in acetonitrile, 293.15 K): 0.0752; solubility (mole fraction) (in acetonitrile, 295.65 K): 0.0795; solubility (mole fraction) (in acetonitrile, 298.15 K): 0.0858; solubility (mole fraction) (in acetonitrile, 300.65 K): 0.0916; solubility (mole fraction) (in acetonitrile, 303.15 K): 0.0987; solubility (mole fraction) (in acetonitrile, 305.65 K): 0.104; solubility (mole fraction) (in acetonitrile, 308.15 K): 0.113; solubility (mole fraction) (in acetonitrile, 310.65 K): 0.12; solubility (mole fraction) (in acetonitrile, 313.15 K): 0.128; solubility (mole fraction) (in acetonitrile, 315.65 K): 0.135; solubility (mole fraction) (in acetonitrile, 318.15 K): 0.143; solubility (mole fraction) (in ethanol, 283.15 K): 0.0139; solubility (mole fraction) (in ethanol, 285.65 K): 0.0144; solubility (mole fraction) (in ethanol, 288.15 K): 0.0148; solubility (mole fraction) (in ethanol, 290.65 K): 0.0154; solubility (mole fraction) (in ethanol, 293.15 K): 0.016; solubility (mole fraction) (in ethanol, 295.65 K): 0.0165; solubility (mole fraction) (in ethanol, 298.15 K): 0.0172; solubility (mole fraction) (in ethanol, 300.65 K): 0.0177; solubility (mole fraction) (in ethanol, 303.15 K): 0.0184; solubility (mole fraction) (in ethanol, 305.65 K): 0.019; solubility (mole fraction) (in ethanol, 308.15 K): 0.0199; solubility (mole fraction) (in ethanol, 310.65 K): 0.0205; solubility (mole fraction) (in ethanol, 313.15 K): 0.0213; solubility (mole fraction) (in ethanol, 315.65 K): 0.0221; solubility (mole fraction) (in ethanol, 318.15 K): 0.0233; solubility (mole fraction) (in methanol, 283.15 K): 0.0516; solubility (mole fraction) (in methanol, 285.65 K): 0.0533; solubility (mole fraction) (in methanol, 288.15 K): 0.0554; solubility (mole fraction) (in methanol, 290.65 K): 0.0572; solubility (mole fraction) (in methanol, 293.15 K): 0.0596; solubility (mole fraction) (in methanol, 295.65 K): 0.0613; solubility (mole fraction) (in methanol, 298.15 K): 0.0637; solubility (mole fraction) (in methanol, 300.65 K): 0.0658; solubility (mole fraction) (in methanol, 303.15 K): 0.0685; solubility (mole fraction) (in methanol, 305.65 K): 0.0708; solubility (mole fraction) (in methanol, 308.15 K): 0.0732; solubility (mole fraction) (in methanol, 310.65 K): 0.0758; solubility (mole fraction) (in methanol, 313.15 K): 0.0795; solubility (mole fraction) (in methanol, 315.65 K): 0.0828; solubility (mole fraction) (in methanol, 318.15 K): 0.0868; solubility (mole fraction) (in water, 283.15 K): 0.00447; solubility (mole fraction) (in water, 285.65 K): 0.00467; solubility (mole fraction) (in water, 288.15 K): 0.00495; solubility (mole fraction) (in water, 290.65 K): 0.00517; solubility (mole fraction) (in water, 293.15 K): 0.00545; solubility (mole fraction) (in water, 295.65 K): 0.00573; solubility (mole fraction) (in water, 298.15 K): 0.00608; solubility (mole fraction) (in water, 300.65 K): 0.0064; solubility (mole fraction) (in water, 303.15 K): 0.00678; solubility (mole fraction) (in water, 305.65 K): 0.00717; solubility (mole fraction) (in water, 308.15 K): 0.00762; solubility (mole fraction) (in water, 310.65 K): 0.00803; solubility (mole fraction) (in water, 313.15 K): 0.00855; solubility (mole fraction) (in water, 315.65 K): 0.00923; solubility (mole fraction) (in water, 318.15 K): 0.0102
